Experimental findings from patent US20140256756A1, “PIPERIDINYL-SUBSTITUTED LACTAMS AS GPR119 MODULATORS” (Array BioPharma Inc., priority 2011, published 2014) are described below.

Counter-ions that a name gives are not always drawn.

The test relates to modified version of the GPR119 receptor (94% identity to human receptor). The test is described as follows: cAMP production assay (LANCE cAMP kit, TR-FRET) in HEK-293 cells. The test is classed as cell-based. As to conditions: for cAMP production in HEK-293 cells: HEK-293 cells stably expressing modified GPR119, test compounds 0.2 nM to 10 μM, one-hour incubation; for Fold over baseline: increase in cAMP relative to basal levels, agonist activity if 1.5-fold or greater. On the procedure: The assay utilized HEK-293 cells that stably express a modified version of the GPR119 receptor (94% identity to human receptor), under the control of a CMV promoter containing a tet-on element for tetracycline-inducible expression. GPR119 agonist-induced cyclic AMP (cAMP) production was measured in this cell line using the LANCE cAMP kit (Perkin Elmer, Waltham, Mass.). To generate a working stock of cells for the assay, cells were treated overnight with 1 μg/mL doxycycline at 37° C. in the presence of 5% CO2 to induce receptor expression. Cells were then harvested by enzymatic dissociation with 0.05% trypsin, resuspended in freezing medium (DMEM growth medium with 10% each of fetal bovine serum and DMSO), aliquoted and frozen at −80° C. On the day of the assay, frozen cells were thawed, washed 1× in PBS and resuspended in Hank's buffered salt solution (HBSS) containing 5 mM HEPES, 0.1% BSA and Alexa Fluor 647-conjugated anti-cAMP antibody (diluted 1:100). The cell suspension was then transferred to a Proxiplate Plus white 384-well assay plate (Perkin-Elmer) at 2000 cells/well. Test compounds at final concentrations ranging from 0.2 nM to 10 μM were added to the assay plate, followed by a one-hour incubation at ambient temperature (volume=10 μL/well). DMSO concentration was held constant at 0.5%. After incubation with test compounds, 10 μL, of a detergent buffer containing a biotinylated cAMP/Europium-conjugated streptavidin complex (Europium-labeled cAMP tracer) were added to each well on the assay plate, followed by a 2-hour incubation at ambient temperature. During this incubation cAMP released from lysed cells competes with the Europium-labeled cAMP tracer for binding to the Alexa Fluor 647-conjugated antibody. […] Cellular cAMP levels were then determined by interpolation of raw signal data using a cAMP standard curve. Compounds were determined to have agonist activity if they stimulated a 1.5-fold or greater increase in cAMP relative to basal levels.

As for `CC(C)c1nsc(N2CCC(N3CCC(Oc4ccc(S(=O)(=O)C(C)C)cc4F)C3=O)CC2)n1` (centres unmarked) [Example 45, 3-(2-fluoro-4-(isopropylsulfonyl)phenoxy)-1-(1-(3-isopropyl-1,2,4-thiadiazol-5-yl)piperidin-4-yl)pyrrolidin-2-one], the “cAMP production in HEK-293 cells” value came to 17.8 nmol and the Fold over baseline was 3.5.

For `CC(C)c1nsc(N2CCC(N3CCC(Oc4ccc(S(=O)(=O)C5CC5)cc4F)C3=O)CC2)n1` (centres unmarked) [Example 46, 3-(4-(Cyclopropylsulfonyl)-2-fluorophenoxy)-1-(1-(3-isopropyl-1,2,4-thiadiazol-5-yl)piperidin-4-yl)pyrrolidin-2-one trifluoroacetate], the “cAMP production in HEK-293 cells” value came out at 20.7 nmol and the Fold over baseline is on record as 4.7.

For `CS(=O)(=O)c1cc(F)c(OC2CCN(C3CCN(c4nc(C5CC5)ns4)CC3)C2=O)cc1F.O=C(O)C(F)(F)F` (centres unmarked) [Example 47, 1-(1-(3-Cyclopropyl-1,2,4-thiadiazol-5-yl)piperidin-4-yl)-3-(2,5-difluoro-4-(methylsulfonyl)phenoxy)pyrrolidin-2-one trifluoroacetate], the “cAMP production in HEK-293 cells” value was 9.8 nmol and the Fold over baseline came out at 2.7.

On to `CS(=O)(=O)c1cc(F)c(OC2CCN(C3CCN(c4nc(-c5ccccc5)ns4)CC3)C2=O)cc1F` (centres unmarked) [Example 48, 3-(2,5-difluoro-4-(methylsulfonyl)phenoxy)-1-(1-(3-phenyl-1,2,4-thiadiazol-5-yl)piperidin-4-yl)pyrrolidin-2-one trifluoroacetate], for which the “cAMP production in HEK-293 cells” value amounted to 20.5 nmol and the Fold over baseline is on record as 3.3.

Consider `CC(C)Cc1nsc(N2CCC(N3CCC(Oc4cc(F)c(S(C)(=O)=O)cc4F)C3=O)CC2)n1` (centres unmarked) [Example 49, 3-(2,5-difluoro-4-(methylsulfonyl)phenoxy)-1-(1-(3-isobutyl-1,2,4-thiadiazol-5-yl)piperidin-4-yl)pyrrolidin-2-one trifluoroacetate], for which the “cAMP production in HEK-293 cells” value is 15.4 nmol and the Fold over baseline was 2.8.

In the case of `CC(C)c1nsc(N2CCC(N3CC[C@H](Oc4ccc(S(C)(=O)=O)cc4F)C3=O)CC2)n1` [Example 50, (S)-3-(2-fluoro-4-(methylsulfonyl)phenoxy)-1-(1-(3-isopropyl-1,2,4-thiadiazol-5-yl)piperidin-4-yl)pyrrolidin-2-one], the “cAMP production in HEK-293 cells” value was 15.1 nmol and the Fold over baseline is given as 5.6.

On to `CC(C)c1nsc(N2CCC(N3CC[C@@H](Oc4ccc(S(C)(=O)=O)cc4F)C3=O)CC2)n1` [Example 51, (R)-3-(2-fluoro-4-(methylsulfonyl)phenoxy)-1-(1-(3-isopropyl-1,2,4-thiadiazol-5-yl)piperidin-4-yl)pyrrolidin-2-one], for which the “cAMP production in HEK-293 cells” value amounted to 33.3 nmol and the Fold over baseline came to 5.9.

Turning to `CC(C)c1nsc(N2CCC(N3CC[C@H](Oc4cc(F)c(S(C)(=O)=O)cc4F)C3=O)CC2)n1` [Example 52, (S)-3-(2,5-difluoro-4-(methylsulfonyl)phenoxy)-1-(1-(3-isopropyl-1,2,4-thiadiazol-5-yl)piperidin-4-yl)pyrrolidin-2-one], the “cAMP production in HEK-293 cells” value was found to be 24.6 nmol and the Fold over baseline stood at 3.9.

As to `CC(C)c1nsc(N2CCC(N3CC[C@H](Oc4ccc(S(C)(=O)=O)c(F)c4)C3=O)CC2)n1` [Example 53, (S)-3-(3-fluoro-4-(methylsulfonyl)phenoxy)-1-(1-(3-isopropyl-1,2,4-thiadiazol-5-yl)piperidin-4-yl)pyrrolidin-2-one], the “cAMP production in HEK-293 cells” value came out at 24.5 nmol and the Fold over baseline was determined as 4.9.

As for `CC(C)c1nsc(N2CCC(N3CC[C@H](Oc4ccc(S(C)(=O)=O)c(Cl)c4)C3=O)CC2)n1` [Example 54, (S)-3-(3-chloro-4-(methylsulfonyl)phenoxy)-1-(1-(3-isopropyl-1,2,4-thiadiazol-5-yl)piperidin-4-yl)pyrrolidin-2-one], the “cAMP production in HEK-293 cells” value turned out to be 17.2 nmol and the Fold over baseline amounted to 3.6.

Consider `CN(C)c1nsc(N2CCC(N3CC[C@H](Oc4cc(F)c(S(C)(=O)=O)cc4F)C3=O)CC2)n1` [Example 55, (S)-3-(2,5-difluoro-4-(methylsulfonyl)phenoxy)-1-(1-(3-(dimethylamino)-1,2,4-thiadiazol-5-yl)piperidin-4-yl)pyrrolidin-2-one], for which the “cAMP production in HEK-293 cells” value turned out to be 17.2 nmol and the Fold over baseline is given as 3.8.

With `CC(C)Cc1nsc(N2CCC(N3CC[C@H](Oc4ccc(S(C)(=O)=O)cc4F)C3=O)CC2)n1` [Example 56, (S)-3-(2-fluoro-4-(methylsulfonyl)phenoxy)-1-(1-(3-isobutyl-1,2,4-thiadiazol-5-yl)piperidin-4-yl)pyrrolidin-2-one], the “cAMP production in HEK-293 cells” value is 17.4 nmol and the Fold over baseline was found to be 3.4.

Turning to `Cc1cc(O[C@H]2CCN(C3CCN(c4nc(C(C)C)ns4)CC3)C2=O)c(F)cc1Br` [Example 57, (S)-3-(4-bromo-2-fluoro-5-methylphenoxy)-1-(1-(3-isopropyl-1,2,4-thiadiazol-5-yl)piperidin-4-yl)pyrrolidin-2-one], the “cAMP production in HEK-293 cells” value was determined as 22.0 nmol and the Fold over baseline is listed as 2.8.

For `Cc1cc(O[C@H]2CCN(C3CCN(c4nc(C(C)C)ns4)CC3)C2=O)c(F)cc1S(C)(=O)=O` [Example 58, (S)-3-(2-fluoro-5-methyl-4-(methylsulfonyl)phenoxy)-1-(1-(3-isopropyl-1,2,4-thiadiazol-5-yl)piperidin-4-yl)pyrrolidin-2-one], the “cAMP production in HEK-293 cells” value was found to be 48.4 nmol and the Fold over baseline was 4.9.

Take `CS(=O)(=O)c1ccc(O[C@H]2CCN(C3CCN(c4nc(C5CCOCC5)ns4)CC3)C2=O)c(F)c1` [Example 59, (S)-3-(2-fluoro-4-(methylsulfonyl)phenoxy)-1-(1-(3-(tetrahydro-2H-pyran-4-yl)-1,2,4-thiadiazol-5-yl)piperidin-4-yl)pyrrolidin-2-one]: the “cAMP production in HEK-293 cells” value was determined as 28.3 nmol and the Fold over baseline is reported as 4.2.

Regarding `CC1(c2nsc(N3CCC(N4CC[C@H](Oc5ccc(S(C)(=O)=O)cc5F)C4=O)CC3)n2)CCOCC1` [Example 60, (S)-3-(2-fluoro-4-(methylsulfonyl)phenoxy)-1-(1-(3-(4-methyltetrahydro-2H-pyran-4-yl)-1,2,4-thiadiazol-5-yl)piperidin-4-yl)pyrrolidin-2-one], the “cAMP production in HEK-293 cells” value is 13.2 nmol and the Fold over baseline is on record as 4.5.

For `CCS(=O)(=O)c1ccc(OC2CCN(C3CCN(c4nc(C(C)C)ns4)CC3)C2=O)c(F)c1` (centres unmarked) [Example 61, 3-(4-(ethylsulfonyl)-2-fluorophenoxy)-1-(1-(3-isopropyl-1,2,4-thiadiazol-5-yl)piperidin-4-yl)pyrrolidin-2-one], the “cAMP production in HEK-293 cells” value was 23.5 nmol and the Fold over baseline came out at 3.5.

For the compound `CC(C)c1nsc(N2CCC(N3CCC(Oc4ccc(S(=O)(=O)c5ccccc5)cc4F)C3=O)CC2)n1` (centres unmarked) [Example 62, 3-(2-Fluoro-4-(phenylsulfonyl)phenoxy)-1-(1-(3-isopropyl-1,2,4-thiadiazol-5-yl)piperidin-4-yl)pyrrolidin-2-one], the “cAMP production in HEK-293 cells” value worked out at 17.4 nmol and the Fold over baseline is 2.7.

On to `CC(C)c1nsc(N2CCC(N3CCC(Oc4ccc(C#N)cc4F)C3=O)CC2)n1` (centres unmarked) [Example 63, 3-Fluoro-4-(1-(1-(3-isopropyl-1,2,4-thiadiazol-5-yl)piperidin-4-yl)-2-oxopyrrolidin-3-yloxy)benzonitrile], for which the “cAMP production in HEK-293 cells” value came to 7.4 nmol and the Fold over baseline was 2.7.

Turning to `Cc1cc(O[C@H]2CCN(C3CCN(c4nc(C(C)C)ns4)CC3)C2=O)c(F)cc1C#N` [Example 64, (S)-5-fluoro-4-(1-(1-(3-isopropyl-1,2,4-thiadiazol-5-yl)piperidin-4-yl)-2-oxopyrrolidin-3-yloxy)-2-methylbenzonitrile], the “cAMP production in HEK-293 cells” value stood at 30.8 nmol and the Fold over baseline was found to be 3.5.

Consider `CC(C)c1nsc(N2CCC(N3CCC(Oc4ccc(S(C)(=O)=O)cc4)C3=O)CC2)n1` (centres unmarked) [Example 65, -(1-(3-Isopropyl-1,2,4-thiadiazol-5-yl)piperidin-4-yl)-3-(4-(methylsulfonyl)phenoxy)pyrrolidin-2-one], for which the “cAMP production in HEK-293 cells” value turned out to be 22.1 nmol and the Fold over baseline is reported as 4.1.

Take `CCS(=O)(=O)c1ccc(OC2CCN(C3CCN(c4nc(C)ns4)CC3)C2=O)c(F)c1` (centres unmarked) [Example 66, 3-(4-(ethylsulfonyl)-2-fluorophenoxy)-1-(1-(3-methyl-1,2,4-thiadiazol-5-yl)piperidin-4-yl)pyrrolidin-2-one]: the “cAMP production in HEK-293 cells” value came to 8.6 nmol and the Fold over baseline came out at 1.8.
